Results reported in patent US11753410B2, “Hormone receptor modulators for treating metabolic mutagenic and fibrotic conditions and disorders” (priority 2017, dated 2023).

Columns and labels:
[1] = target: T1, ligand binding domain of human FXR (Homo sapiens, UniProt Q96RI1); experiment: biochemical; conditions: for EC50: −log EC50, concentration required to produce 50% activation, FRET 520 nm/495 nm, 1 hour at room temperature, read-out: Ligand Binding pEC50 (converted); for Emax: extent of activation relative to GW4064, read-out: Ligand Binding % Efficacy
T1 construct: purchased Thermofisher (LanthaScreen) PV4833
T1 sequence (Q96RI1 262-486 limits assumed): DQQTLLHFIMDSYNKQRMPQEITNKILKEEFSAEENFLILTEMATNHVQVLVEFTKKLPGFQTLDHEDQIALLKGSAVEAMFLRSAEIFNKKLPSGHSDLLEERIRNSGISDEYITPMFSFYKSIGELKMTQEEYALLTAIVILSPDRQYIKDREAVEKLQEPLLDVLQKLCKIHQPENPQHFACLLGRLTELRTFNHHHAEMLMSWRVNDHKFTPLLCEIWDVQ

[2] = target: T2, human Farnesoid X receptor ligand-binding domain/Gal4 DNA binding domain chimera (Homo sapiens, UniProt Q96RI1); experiment: Cell-based assay of FXR activation (FXR-UAS-bla HEK 293T beta-lactamase reporter); conditions: for Emax: HEK-293T, read-out: Cellular % Efficacy
T2 construct: host or cells: FXR-UAS-bla HEK 293T (CellSensor UAS-bla HEK 293T)
T2 sequence (Q96RI1 262-486 limits assumed): T1 sequence (Q96RI1 262-486 limits assumed)
Description: FXR activation was measured using a cell line and procedure obtained from Life Technologies (Cat #K1691). […] Activation of FXR by bound ligands results in transcriptional activation of the beta-lactamase reporter gene, which is detected via assay of beta-lactamase activity.
Cells are harvested and diluted into assay medium containing phenol red-free DMEM supplemented with 2% Charcoal-stripped FBS, pyruvate, non-essential amino acids. Cells are then transferred to a 384 well assay plate. Test compounds are dissolved in DMSO and a 3-fold serial dilution series is generated, then further diluted into assay medium. Compounds in assay medium are added to cells in the 384 well plate and allowed to incubate 16 h at 37 C in the presence of 5% CO2.
A FRET-based […] (CCF4) is loaded into cells as its acetomethoxy ester. Intracellular esterases liberate free CCF4, a cephalosporin core linking 7-hydroxycoumarin to fluorescein. In the presence of beta-lactamase activity produced in the presence of FXR agonists, cleavage of CCF4 spatially separates the two dyes and disrupts FRET, so that exciting the coumarin at 409 nm now produces a blue fluorescence signal at 447 nm. The change in FRET signal is plotted against the test compound concentration and fit to a 3-parameter logistical equation.

Row | SMILES | EC50 [1] | EC50 [2] | Emax [1] | Emax [2]
1 | O=C(O)CCc1ccc(N2C[C@@H]3C[C@H]2C[C@H]3OCc2c(-c3c(Cl)cccc3Cl)cnn2C2CC2)cc1 [Compound I-43, 3-{4-[(1S,4S,5R)-5-{[1-cyclopropyl-4-(2,6-dichlorophenyl)-1H-pyrazol-5-yl]methoxy}-2-azabicyclo[2.2.1]heptan-2-yl]phenyl}propanoic acid] | < 316 nM | < 31.6 nM |  | 
2 | O=C(O)CCc1ccc(N2C[C@@H]3C[C@H]2C[C@H]3OCc2c(-c3c(Cl)cccc3Cl)cnn2C2CC2)c(F)c1 [Compound I-44, 3-{4-[(1S,4S,5R)-5-{[1-cyclopropyl-4-(2,6-dichlorophenyl)-1H-pyrazol-5-yl]methoxy}-2-azabicyclo[2.2.1]heptan-2-yl]-3-fluorophenyl}propanoic acid] | < 631 nM | < 31.6 nM | 96% | 
3 | CS(=O)(=O)CCNC(=O)c1ccc(N2C[C@@H]3C[C@H]2C[C@H]3OCc2c(-c3c(Cl)cccc3Cl)cnn2C2CC2)cc1F [Compound I-45, 4-[(1S,4S,5R)-5-{[1-cyclopropyl-4-(2,6-dichlorophenyl)-1H-pyrazol-5-yl]methoxy}-2-azabicyclo[2.2.1]heptan-2-yl]-2-fluoro-N-(2-methanesulfonylethyl)benzamide] | 398 nM | 1000 nM | 57% | 92%
4 | O=C(NS(=O)(=O)C1CCOCC1)c1ccc(N2C[C@@H]3C[C@H]2C[C@H]3OCc2c(-c3c(Cl)cccc3Cl)cnn2C2CC2)cc1 [Compound I-46, 4-[(1S,4S,5R)-5-{[1-cyclopropyl-4-(2,6-dichlorophenyl)-1H-pyrazol-5-yl]methoxy}-2-azabicyclo[2.2.1]heptan-2-yl]-N-(oxane-4-sulfonyl)benzamide] | 100 nM | < 31.6 nM | 170% | 
5 | O=C(O)c1cc(F)c2nc(N3C[C@@H]4C[C@H]3C[C@H]4OCc3c(-c4c(Cl)cccc4Cl)cnn3C3CC3)sc2c1 [Compound I-47, 2-[(1S,4S,5R)-5-{[1-cyclopropyl-4-(2,6-dichlorophenyl)-1H-pyrazol-5-yl]methoxy}-2-azabicyclo[2.2.1]heptan-2-yl]-4-fluoro-1,3-benzothiazole-6-carboxylic acid] | 251 nM | 398 nM | 62% | 94%
6 | O=C(O)c1cc(OC2CC2)c2nc(N3C[C@@H]4C[C@H]3C[C@H]4OCc3c(-c4c(Cl)cccc4Cl)cnn3C3CC3)sc2c1 [Compound I-48, 4-cyclopropoxy-2-[(1S,4S,5R)-5-{[1-cyclopropyl-4-(2,6-dichlorophenyl)-1H-pyrazol-5-yl]methoxy}-2-azabicyclo[2.2.1]heptan-2-yl]-1,3-benzothiazole-6-carboxylic acid] | 39.8 nM | 20 nM | 88% | 101%
7 | O=C(O)c1cc(C2CCOCC2)c2nc(N3C[C@@H]4C[C@H]3C[C@H]4OCc3c(-c4c(Cl)cccc4Cl)cnn3C3CC3)sc2c1 [Compound I-49, 2-[(1S,4S,5R)-5-{[1-cyclopropyl-4-(2,6-dichlorophenyl)-1H-pyrazol-5-yl]methoxy}-2-azabicyclo[2.2.1]heptan-2-yl]-4-(oxan-4-yl)-1,3-benzothiazole-6-carboxylic acid] | 100 nM | < 63.1 nM | 82% | 105%
8 | O=C(O)c1ccc(N2C[C@@H]3C[C@H]2C[C@H]3OCc2c(C3CC3)nnn2-c2c(Cl)cccc2Cl)cc1 [Compound I-52, 4-[(1S,4S,5R)-5-{[4-cyclopropyl-1-(2,6-dichlorophenyl)-1H-1,2,3-triazol-5-yl]methoxy}-2-azabicyclo[2.2.1]heptan-2-yl]benzoic acid] | 6.31 nM | 3.98 nM | 140% | 106%
9 | O=C(O)c1ccc(N2C[C@@H]3C[C@H]2C[C@H]3OCc2c(C3CC3)nnn2-c2c(Cl)cccc2Cl)cc1F [Compound I-53, 4-[(1S,4S,5R)-5-{[4-cyclopropyl-1-(2,6-dichlorophenyl)-1H-1,2,3-triazol-5-yl]methoxy}-2-azabicyclo[2.2.1]heptan-2-yl]-2-fluorobenzoic acid] | 6.31 nM | 3.98 nM | 170% | 92%
10 | O=C(O)CCc1ccc(N2C[C@@H]3C[C@H]2C[C@H]3OCc2c(C3CC3)nnn2-c2c(Cl)cccc2Cl)c(F)c1 [Compound I-54, 3-{4-[(1S,4S,5R)-5-{[4-cyclopropyl-1-(2,6-dichlorophenyl)-1H-1,2,3-triazol-5-yl]methoxy}-2-azabicyclo[2.2.1]heptan-2-yl]-3-fluorophenyl}propanoic acid] | 20 nM | 12.6 nM | 152% | 100%
11 | O=C(O)CCc1ccc(N2C[C@@H]3C[C@H]2C[C@H]3OCc2c(C3CC3)nnn2-c2c(Cl)cccc2Cl)cc1F [Compound I-55, 3-{4-[(1S,4S,5R)-5-{[4-cyclopropyl-1-(2,6-dichlorophenyl)-1H-1,2,3-triazol-5-yl]methoxy}-2-azabicyclo[2.2.1]heptan-2-yl]-2-fluorophenyl}propanoic acid] | 63.1 nM | 15.8 nM | 147% | 91%
12 | O=C(NS(=O)(=O)C1CCOCC1)c1ccc(N2C[C@@H]3C[C@H]2C[C@H]3OCc2c(C3CC3)nnn2-c2c(Cl)cccc2Cl)cc1 [Compound I-56, 4-[(1S,4S,5R)-5-{[4-cyclopropyl-1-(2,6-dichlorophenyl)-1H-1,2,3-triazol-5-yl]methoxy}-2-azabicyclo[2.2.1]heptan-2-yl]-N-(oxane-4-sulfonyl)benzamide] | 2 nM | 10 nM | 180% | 104%
13 | O=C(O)c1cc(O[C@H]2CCOC2)c2nc(N3C[C@@H]4C[C@H]3C[C@H]4OCc3c(C4CC4)nnn3-c3c(Cl)cccc3Cl)sc2c1 [Compound I-61, 2-[(1S,4S,5R)-5-{[4-cyclopropyl-1-(2,6-dichlorophenyl)-1H-1,2,3-triazol-5-yl]methoxy}-2-azabicyclo[2.2.1]heptan-2-yl]-4-[(3S)-oxolan-3-yloxy]-1,3-benzothiazole-6-carboxylic acid] | 3.98 nM | 25.1 nM | 158% | 107%
14 | O=C(O)c1cc(O[C@@H]2CCOC2)c2nc(N3C[C@@H]4C[C@H]3C[C@H]4OCc3c(C4CC4)nnn3-c3c(Cl)cccc3Cl)sc2c1 [Compound I-62, 2-[(1S,4S,5R)-5-{[4-cyclopropyl-1-(2,6-dichlorophenyl)-1H-1,2,3-triazol-5-yl]methoxy}-2-azabicyclo[2.2.1]heptan-2-yl]-4-[(3R)-oxolan-3-yloxy]-1,3-benzothiazole-6-carboxylic acid] | 3.98 nM | 25.1 nM | 158% | 106%
15 | O=C(O)c1cc(OC(F)(F)F)c2nc(N3C[C@@H]4C[C@H]3C[C@H]4OCc3c(-c4c(Cl)cccc4Cl)nnn3C3CC3)sc2c1 [Compound I-63, 2-[(1S,4S,5R)-5-{[1-cyclopropyl-4-(2,6-dichlorophenyl)-1H-1,2,3-triazol-5-yl]methoxy}-2-azabicyclo[2.2.1]heptan-2-yl]-4-(trifluoromethoxy)-1,3-benzothiazole-6-carboxylic acid] | 12.6 nM | 12.6 nM | 180% | 103%
